In article PMC6943670, “Investigating the Binding Mode of Reversible LSD1 Inhibitors Derived from Stilbene Derivatives by 3D-QSAR, Molecular Docking, and Molecular Dynamics Simulation” (Molecules, 2019):
Where two headings read alike, the source gives them in different places.

Tests used:
LSD1 [1] = target: T1, LSD1 (Homo sapiens, UniProt O60341); parameters: method as in PMID 30448189; conditions: cited from earlier work
LSD1 [2] = target: T1, LSD1; assay: LSD1 enzyme inhibition assay (H3K4me2 substrate, Amplex Red/HRP fluorescence)
LSD1 [3] = target: T1, LSD1; conditions: cited from earlier work

| melting point [°C] | IC50 (LSD1 [2]) [µM] | SMILES | other results |
| --- | --- | --- | --- |
| 163 to 164 | – | COc1cc(Br)c(/C=C/c2ccc(C(=O)NO)cc2)cc1OC | – |
| 159 to 160 | – | COc1cc(F)c(/C=C/c2ccc(C(=O)NO)cc2)cc1OC | – |
| – | – | N/C(=N\O)c1cccc(/C=C/c2ccnc(-c3cc(F)ccc3O)c2)c1 [Compound 22] | binding site by enzyme kinetics studies (LSD1 [1]): FAD region |
| 205 to 206 | 4.16 | COc1ccc(/C=C/c2ccc(/C=C/C(=O)NO)cc2)cc1OC [Compound 24] | – |
| 185 to 186 | 3.31 | COc1cc(F)c(/C=C/c2ccc(/C=C/C(=O)NO)cc2)cc1OC [Compound 25] | – |
| 149 to 150 | 5.18 | COc1cc(/C=C/c2ccc(/C=C/C(=O)NO)cc2)cc(OC)c1 [Compound 26] | – |
| 120 to 121 | 3.98 | COc1cc(Br)c(/C=C/c2ccc(/C=C/C(=O)NO)cc2)cc1OC [Compound 27] | – |
| – | 0.692 | COc1cc(/C=C/c2ccc(C(=O)NO)cc2)cc(OC)c1 [Compound 29] | – |
| 197 to 198 | 0.816 | COc1ccc(/C=C/c2ccc(C(=O)NO)cc2)cc1OC [Compound 30] | – |
| 266 to 267 | 1.3 | O=C(NO)c1ccc(/C=C/c2cc(F)cc(F)c2)cc1 [Compound 31] | – |
| 193 to 194 | 1.93 | O=C(NO)c1ccc(/C=C/c2ccc3c(c2)CCO3)cc1 [Compound 33] | – |
| – | – | O=C(O)c1ccc(CN2CCC(CN[C@@H]3C[C@H]3c3ccccc3)CC2)cc1 [GSK2879552] | IC50 (LSD1 [3]; inhibition of LSD1): 0.02 µM |
| – | – | Cc1ccc(-c2ncc(OC[C@@H]3CCNC3)cc2-c2ccc(C#N)cc2)cc1 [GSK-354] | IC50 (LSD1 [3]; reversible LSD1 inhibitor): 0.09 µM |
| – | – | C#CCN(C)Cc1ccccc1 [pargyline] | inhibitory effect on LSD1 (LSD1 [3]; MAO inhibitors bonding covalently with FAD): no significant inhibitory effect; selectivity (LSD1 [3]; MAO inhibitors): poor selectivity |
